One data set deals with HCV 5'NTR RNA. As to the kind of experiment: Gel electrophoretic mobility shift analysis (EMSA) of PNA-glucosamine conjugate binding to HCV 5'NTR RNA transcript. The following applies: for gel retardation of the labeled RNA: 20 nM HCV 5'NTR RNA transcript. On the procedure: FIG. 10. Stoichiometry of binding of PNA-glucosamine conjugate to its target sequence: (A) The PCR product corresponding to domains III and IV of 5′NTR and the 36 nucleotide of the N-terminal coding sequence of the HCV core were transcribed to generate 244-base runoff transcripts using a T7 transcription kit from Roche Applied Sciences. The 20 nM of internally 32P labeled HCV 5′NTR RNA transcript was incubated either with various concentrations of PNA-glucosamine conjugate complementary to sequence 352-338 in domain IV of the 5′NTR or (B) scramble PNA-glucosamine conjugate. Binding of the PNA-glucosamine conjugate (PNAHCV 352-338) to its target sequence was evaluated by gel electrophoretic mobility shift analysis (EMSA). Lane 1, control without PNA conjugate; lane 2, 10 nM of PNA conjugate; lane 3, 15 nM of PNA conjugate; lane 4, 20 nM of conjugate, lane 5, 25 nM of conjugate.
Target specificity of antisense PNA: Using a PNA-glucosamine conjugate targeted to the translation initiation window (352-338: […]) in Domain IV of HCV 5′NTR, we have shown that it has great specificity for the targeted sequence. The PNA-glucosamine conjugate ([…]) forms a tight complex with HCV RNA at a stoichiometric ratio (FIG. 10).

The subject of data set [1] is HCV subgenomic replicons in MH14 cells. As to the kind of experiment: Inhibition of viral translation and replication in MH14 cells carrying HCV subgenomic replicons. It is filed as cell-based.

The source of these data is US20140371137A1, “PREPARATION OF PNA-6-AMINOGLUCOSAMINE CONJUGATES AS ANTIVIRAL AGENTS” (priority 2013, published 2014).

Regarding “PNAHCV353-338: PNA-glucosamine conjugate targeted to the translation initiation window (352-338: TTCGTGCTCATGGTG) in Domain IV of HCV 5'NTR (all peptide nucleic acid (PNA); glucosamine conjugate attached)”, the “gel retardation of the labeled RNA” value in the data set with HCV 5'NTR RNA (1:0.5 ratio of target RNA to PNA conjugate) is recorded as 50%; in the data set on HCV 5'NTR RNA (1:0.75 ratio of target RNA to PNA conjugate), 75%. The “gel shift of the target RNA” value in the data set with HCV 5'NTR RNA (stoichiometric ratios of 1:1 or greater) was “complete gel shift”. The “HCV translation (viral protein NS5B, Western blot)” value in data set [1] (72 h, 50, 100 and 200 nM conjugate (FIG. 13A)) was “efficiently blocked at a subnanomolar concentration”. Moreover, the “HCV replication (viral RNA, RT PCR)” value in data set [1] (72 h, 50, 100 and 200 nM conjugate (FIG. 13B)) is “efficiently blocked at a subnanomolar concentration”.
